This note sets out measurements from publication PMC9369794 (Molecules, 2022).

The structures appear in SMILES notation. Counter-ions that a name gives are not always drawn.

The nature of data set [1]: TEAC assay using ABTS radical. As to conditions: 6 min, ratio of slopes to trolox (melatonin dissolved in EtOH); for TEAC from DMSO: stock in DMSO diluted with PBS pH 7.4, 37 °C; for TEAC from THF: stock in THF diluted with PBS pH 7.4, 37 °C. As to the method:
This method uses a redox reaction between ABTS^•+ radical cation and the examined antioxidants, which act as the reducing agents. […] As the carotenoids and the conjugates are poorly soluble in water, they were dissolved first either in small amounts of freshly distilled tetrahydrofuran (THF) or in dimethylsulfoxide (DMSO), and these stock solutions were diluted with phosphate-buffered saline (PBS) to the final nominal concentration.
The TEAC values were determined in isotonic phosphate buffer of pH 7.4. The buffer solution was made by dissolving 9.55 g of DPBS powder in distilled water to form 1L of solution (composition: 0.138 M NaCl, 0.0027 M KCl, 0.0081 M Na2HPO4, 0.0015 M KH2PO4). The assay was performed according to a literature process with slight modifications. The ABTS^•+ radical cation was produced by reacting 7 mM 2,2′-azino-bis(3-ethylbenzothiazoline-6-sulfonic acid) and 2.45 mM potassium persulfate in water. The stock ABTS^•+ solution was prepared 12–16 h before the experiments, and stored at room temperature in dark. The absorbance of the ABTS^•+ solution was set to 0.70 ± 0.05 at 734 nm by a ca. 100-fold dilution with phosphate-buffered saline (PBS). […] The stock solutions were diluted with PBS such that equal amounts of the diluted solutions were added to the ABTS^•+ reagent to obtain final antioxidants concentrations of 0.3125, 0.625, 1.25, 2.50, 3.75, 5 μM, respectively. In the blank (0 μM), the solutions of the antioxidants were substituted with THF or DMSO.
The antioxidants were incubated with ABTS^•+ solution at 37 °C for 6 min. During the reaction of ABTS^•+ with the antioxidants the absorbance of the solution decreases. The percentage inhibition of absorbance at 734 nm was calculated as (A0 − Aantioxidant)/A0, where A0 is the absorbance of the ABTS^•+ solution and Aantioxidant is the absorbance measured after the addition of the antioxidant. The determinations were carried out at each concentration in triplicate. The calculated values were plotted against the final concentration of the antioxidants. The slopes of the curves were compared with that for trolox, the TEAC value is the ratio of the slopes for the antioxidant and for trolox.

The nature of data set [2]: FRAP assay for the antioxidant capacity. Also noted: key to FRAP: slope of concentration-absorbance line divided by Trolox slope. The conditions noted are these: stock in THF, acetate buffer pH 3.0, 37 °C, 15 min; ratio of slopes to trolox (melatonin in EtOH). As to the method: In the FRAP method the antioxidant reduces Fe^3+ to Fe^2+ in an acidic medium. These experiments were performed in an acetate buffer of pH 3.0, the stock solutions of the examined antioxidants were prepared in THF. The antioxidant capacities were compared to that of Trolox as a standard, just like in the ABTS assays.
A modified literature process was used. The FRAP reagent should also be prepared freshly each day. 2,4,6-Tris(2-pyridyl)-s-triazin (TPTZ) was dissolved in a 200 mM HCl solution and diluted with water to get a final 40 mM HCl and 10 mM TPTZ concentration. For the preparation of the FRAP reagent 30 mL of 20 mM FeCl3 solution and 30 mL of 10 mM TPTZ solution were mixed, and 300 mL of 300 mM acetate buffer with pH 3.0 was added (a pH lower than usual was used to avoid the precipitation of the TPTZ). The FRAP reagent was incubated at 37 °C for 15 min. 150 μL of antioxidant dissolved in THF was mixed with 2.85 mL FRAP reagent solution, and incubated at 37 °C for 15 min in dark. Measurements were carried out at each antioxidant concentration (0, 7.5; 10; 12.5; 15; 17.5 μM final concentration) in triplicate. In the 0 μM solution the antioxidant solution was substituted with acetate buffer (pH 3.0). The FRAP was determined at 600 nm: the absorbance values were plotted as a function of concentration of the sample compounds and that of Trolox for the standard reference data. The FRAP values were calculated as in the ABTS assays, i.e., the slope of the concentration-absorbance lines for the carotenoid derivatives was divided by that for the trolox.

A short description of data set [3]: Hydrodynamic diameter and colloidal stability of aggregates by dynamic light scattering. The class given is physicochemical. As to conditions: for mean size (hydrodynamic diameter) / zeta potential: 37 °C; for PDI: sd^2/mean size^2. As to the method:
In contrary, all spectra gave a hypsochromic shift and loss of fine-structure when the DMSO solutions were diluted with PBS, which refers to the formation of H-type (card-pack) aggregates (Figures S1–S12). Since DMSO-containing aqueous systems are more suitable for biological studies, we examined these solution by dynamic light scattering (DLS) spectroscopy to gain more information about the particles. The concentrations of the examined solutions were the same as used in the ABTS/TEAC measurements (0.3125–5.00 μM, see next section).
Size determination of aggregates and the colloidal stability of the sample dispersions were determined by dynamic light scattering measurements, where the hydrodynamic diameter of particles, and zeta potential values were collected. The number-weighted size distribution indicated one main peak in each case, the polydispersity index (PDI) was calculated as sd^2/mean size^2. For the particle size analysis Malvern Zetasizer Nano S instrument and for the zeta potential determination Malvern Zetasizer Nano Z instrument were used (Malvern Panalytical Ltd., Great Malvern, Worcestershire, UK). The measurements were carried out in autocorrelation mode, and the following parameters were kept constant: scattering angle 173°, attenuator 11 and its factor 0.0146, measurement position 4.65 mm. The concentrations of sample dispersions were between 0.3125 and 5 µM. The dispersion medium was PBS. Each samples was examined after 6 min incubation period at 37 °C.

Data set [4] can be described thus: Study of aggregation by UV-Vis spectrophotometry. The class given is physicochemical. From the text:
It has been known for a long while that carotenoids or their derivatives can be prone to supramolecular organization in water or water-organic solvent mixtures. This behaviour is especially interesting because this higher organization can modulate or alter biological properties of carotenoids, as well [40]. A tendency to form supramolecular structures can be tested by recording the UV spectra in an organic solvent and increasing the ratio of water in the sample. […] We have some recent experience of such behaviour of carotenoid-flavonoid conjugates.
All of our adducts were tested with the method above using tetrahydrofurane (THF) or dimethylsulfoxide (DMSO) with increasing ratio of phosphate-buffered saline (PBS), which was the medium of the antioxidant measurements. […]
1. Study of Aggregation by UV-Vis Spectrophotometry
Starting from THF solutions: each conjugate was dissolved in freshly distilled THF and the solutions were diluted
either with THF or THF-PBS mixtures to obain final solutions of identical carotenoid concentration. […]
Figure S1. UV-spectra of 8’-apo-β-carotenol succinate ( 6) ( a) in THF and in THF-PBS mixtures ( 1:1 , 1:3); (b) in DMSO
Figure S2. UV-spectra of zeaxanthin bissuccinate ( 7) ( a) in THF and in THF-PBS mixtures ( 1:1 , 1:3); (b) in DMSO and
Figure S3. UV-spectra of zeaxanthin monosuccinate ( 11) ( a) in THF and in THF-PBS mixtures ( 1:1 , 1:3); (b) in DMSO […]

[5] abbreviates: 0.3125 μM in PBS from DMSO stock.
[6] abbreviates: 0.625 μM in PBS from DMSO stock.

`CC1=C(/C=C/C(C)=C/C=C/C(C)=C/C=C/C=C(C)/C=C/C=C(\C)COC(=O)CCC(=O)O)C(C)(C)CCC1` (as salt: succinate) [Compound 6, 8′-Apo-β-carotenol succinate] returned a melting point of 123 to 124 °C.

`CC1=C(/C=C/C(C)=C/C=C/C(C)=C/C=C/C=C(C)/C=C/C=C(C)/C=C/C2=C(C)C[C@@H](OC(=O)CCC(=O)O)CC2(C)C)C(C)(C)C[C@H](OC(=O)CCC(=O)O)C1` (as salt: succinate) [Compound 7, Zeaxanthin bissuccinate] showed a melting point of 152 to 153 °C.

Compound `CC1=C(/C=C/C(C)=C/C=C/C(C)=C/C=C/C=C(C)/C=C/C=C(C)/C=C/C2=C(C)C[C@@H](OC(=O)CCC(=O)O)CC2(C)C)C(C)(C)CCC1` (as salt: succinate) [Compound 8, β-Cryptoxanthin succinate] returned a melting point of 142 to 143 °C.

Turning to `CC1=C(/C=C/C(C)=C/C=C/C(C)=C/C=C/C=C(C)/C=C/C=C(C)/C=C/C(=O)[C@]2(C)C[C@@H](OC(=O)CCC(=O)O)CC2(C)C)C(C)(C)C[C@H](OC(=O)CCC(=O)O)C1` (as salt: succinate) [Compound 9, Capsanthin bissuccinate], the melting point was 143 to 144 °C.

Turning to `CC1=C[C@H](OC(=O)CCC(=O)O)CC(C)(C)[C@H]1/C=C/C(C)=C/C=C/C(C)=C/C=C/C=C(C)/C=C/C=C(C)/C=C/C1=C(C)C[C@@H](OC(=O)CCC(=O)O)CC1(C)C` (as salt: succinate) [Compound 10, Lutein bissuccinate], the melting point is 148 to 149 °C.

With `CC1=C(/C=C/C(C)=C/C=C/C(C)=C/C=C/C=C(C)/C=C/C=C(\C)C=O)C(C)(C)CCC1` [8'-Apo-β-carotenal, 8′-apo-β-carotenal, reference compound], in data set [1], the “TEAC from DMSO” value stood at 1.19 and the “TEAC from THF” value turned out to be 0.953. The FRAP in data set [2] is 0.443.

As to `CC1=C(/C=C/C(C)=C/C=C/C(C)=C/C=C/C=C(C)/C=C/C=C(C)/C=C/C2=C(C)C[C@@H](O)CC2(C)C)C(C)(C)C[C@H](O)C1` [Compound 2, zeaxanthin, reference compound], in data set [1], the “TEAC from DMSO” value is 2.70 and the “TEAC from THF” value turned out to be 2.016. Also, the FRAP in data set [2] was 0.351.

`CC1=C(/C=C/C(C)=C/C=C/C(C)=C/C=C/C=C(C)/C=C/C=C(C)/C=C/C2=C(C)C[C@@H](O)CC2(C)C)C(C)(C)CCC1` [Compound 3, cryptoxanthin, reference compound]: in data set [1], the “TEAC from DMSO” value was found to be 1.61 and the “TEAC from THF” value came to 2.062. Also, the FRAP in data set [2] is 0.441.

As to `CC1=C(/C=C/C(C)=C/C=C/C(C)=C/C=C/C=C(C)/C=C/C=C(C)/C=C/C(=O)[C@]2(C)C[C@@H](O)CC2(C)C)C(C)(C)C[C@H](O)C1` [Compound 4, capsanthin, reference compound], in data set [1], the “TEAC from DMSO” value amounted to 0.62 and the “TEAC from THF” value worked out at 1.036. Besides, the FRAP in data set [2] came to 0.197.

Regarding `CC1=C[C@H](O)CC(C)(C)[C@H]1/C=C/C(C)=C/C=C/C(C)=C/C=C/C=C(C)/C=C/C=C(C)/C=C/C1=C(C)C[C@@H](O)CC1(C)C` [Compound 5, lutein, reference compound], in data set [1], the “TEAC from DMSO” value is 1.02 and the “TEAC from THF” value stood at 1.571. Further, the FRAP in data set [2] was found to be 0.161.

`COc1ccc2[nH]cc(CCNC(=O)CNC(=O)CCC(=O)O[C@@H]3CC(C)=C(/C=C/C(C)=C/C=C/C(C)=C/C=C/C=C(C)/C=C/C=C(C)/C=C/C4=C(C)C[C@@H](O)CC4(C)C)C(C)(C)C3)c2c1` [Compound 13, Zeaxanthin-monomelatonin conjugate] registered a melting point of 156 to 157 °C. Also, in data set [3] (setting [5]), the “mean size (hydrodynamic diameter)” value came to 388.20 nm and the zeta potential came to 16.0 mV. This compound displayed a PDI in data set [3] (0.3125 μM in PBS) of 0.0336. For the same compound, in data set [3] (setting [6]), the “mean size (hydrodynamic diameter)” value amounted to 551.20 nm and the zeta potential turned out to be 15.4 mV. Besides, the PDI in data set [3] (0.625 μM in PBS) worked out at 0.0410. In addition, in data set [3] (1.25 μM in PBS from DMSO stock), the “mean size (hydrodynamic diameter)” value is listed as 364.50 nm and the zeta potential was 2.2 mV. The PDI in data set [3] (1.25 μM in PBS) was 0.0270. In data set [3] (2.5 μM in PBS from DMSO stock), the “mean size (hydrodynamic diameter)” value is recorded as 638.90 nm and the zeta potential turned out to be 2.2 mV. The PDI in data set [3] (2.5 μM in PBS) is 0.0217. Besides, in data set [3] (3.75 μM in PBS from DMSO stock), the “mean size (hydrodynamic diameter)” value is 79.01 nm and the zeta potential turned out to be 0.7 mV. The PDI in data set [3] (3.75 μM in PBS) was 0.0112. Moreover, in data set [3] (5 μM in PBS from DMSO stock), the “mean size (hydrodynamic diameter)” value is given as 565.30 nm and the zeta potential was 1.1 mV. Moreover, in data set [3] (5 μM in PBS), the PDI is recorded as 0.0311. In addition, the “hydrodynamic diameter of the aggregates” value in data set [3] (over the concentrations 0.3125–5.00 μM) is reported as 400–600 nm. Further, in data set [1], the “TEAC from DMSO” value is 1.34 and the “TEAC from THF” value turned out to be 1.434. In data set [2], the FRAP was determined as 0.152. In data set [4] (from THF:aqueous solutions), the “type of aggregates formed” value is reported as “J-type (head-to-tail) aggregates”. In data set [4] (starting from THF solutions), the “change of UV spectrum with increasing ratio of PBS” value is on record as “bathochromic shift”.

The melting point is the temperature of the solid-liquid transition.
